Series [1] has as its target T1, Aminopeptidase N (Homo sapiens, UniProt P15144). The experiment in a line: Inhibition of APN in human PLC/PRF/5 cells using L-Leu-pnitroanilide as substrate pretreated for 5 mins followed by substrate addition measured after 1 hr. The series is classed as cell-based.
In series [2] the target is T1, Aminopeptidase N. Put plainly: Inhibition of APN in human ES2 cells using L-Leu-pnitroanilide as substrate pretreated for 5 mins followed by substrate addition measured after 1 hr. The series is classed as cell-based.
Series [3] concerns the target T2, Aminopeptidase N (Sus scrofa, UniProt P15145).
T2 sequence (P15145 whole entry): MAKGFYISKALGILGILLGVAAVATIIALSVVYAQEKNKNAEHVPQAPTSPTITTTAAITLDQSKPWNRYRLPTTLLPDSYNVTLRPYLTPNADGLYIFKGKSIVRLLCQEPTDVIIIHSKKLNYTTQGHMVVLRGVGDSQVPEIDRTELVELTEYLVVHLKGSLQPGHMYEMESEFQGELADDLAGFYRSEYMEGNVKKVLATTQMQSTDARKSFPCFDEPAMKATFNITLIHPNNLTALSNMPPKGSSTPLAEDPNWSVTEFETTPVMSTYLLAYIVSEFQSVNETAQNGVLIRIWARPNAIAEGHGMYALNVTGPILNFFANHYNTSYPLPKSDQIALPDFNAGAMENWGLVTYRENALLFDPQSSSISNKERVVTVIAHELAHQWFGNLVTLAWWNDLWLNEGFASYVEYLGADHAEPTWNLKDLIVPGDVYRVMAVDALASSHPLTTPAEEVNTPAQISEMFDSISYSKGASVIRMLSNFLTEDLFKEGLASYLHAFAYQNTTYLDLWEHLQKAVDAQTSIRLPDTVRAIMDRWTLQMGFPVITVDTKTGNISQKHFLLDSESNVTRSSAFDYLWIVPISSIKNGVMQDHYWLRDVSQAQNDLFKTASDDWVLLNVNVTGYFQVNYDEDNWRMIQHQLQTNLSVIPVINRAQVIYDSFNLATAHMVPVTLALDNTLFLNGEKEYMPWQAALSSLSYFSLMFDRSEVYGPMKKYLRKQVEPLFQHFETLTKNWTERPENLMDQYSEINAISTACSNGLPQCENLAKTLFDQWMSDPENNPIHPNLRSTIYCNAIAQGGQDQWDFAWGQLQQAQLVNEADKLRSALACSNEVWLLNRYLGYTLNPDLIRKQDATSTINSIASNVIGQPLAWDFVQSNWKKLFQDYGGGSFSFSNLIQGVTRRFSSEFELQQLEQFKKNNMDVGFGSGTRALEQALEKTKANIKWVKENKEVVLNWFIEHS
Put plainly: Inhibition of APN in porcine kidney microsomes using L-Leu-pnitroanilide as substrate pretreated for 5 mins followed by substrate addition measured after 30 mins.

Series [4] deals with HUVEC. Put plainly: Antiangiogenic activity in HUVEC assessed as inhibition of capillary-like tube formation at 100 uM after 4 hrs by matrigel-based assay. The series is classed as functional, cell-based. The following applies: Homo sapiens.
For another series, the system named is H22. Put plainly: Anti-metastatic activity against mouse H22 cells implanted in Kunming mouse assessed as reduction in number of metastatic nodes at 60 mg/kg, ip administered once daily for 12 days measured on day 13 by bouin's staining based assay relative to control. Also noted: scale not given: the % may be the effect or the level left. It is filed as functional.

Series [5] deals with Thoracic aorta. Put plainly: Antiangiogenic activity in Sprague-Dawley rat thoracic aorta ring assessed as reduction in micro-vessel growth at 100 uM supplemented with fresh medium containing compound every 3 for 9 days measured on day 9 by matrigel-based inverted microscopic analysis. The series is classed as functional, tissue-based.
In series [6] the test system is Mus musculus. Put plainly: Toxicity in Kunming mouse implanted with mouse H22 cells assessed as effect on spleen at 60 mg/kg, ip administered once daily for 12 days. The series is classed as organism-based. The following applies: in vivo, 288 h.
In series [7] the test system is Mus musculus. The experiment in a line: Toxicity in Kunming mouse implanted with mouse H22 cells assessed as body weight loss at 60 mg/kg, ip administered once daily for 12 days measured every 2 days during compound dosing. It is filed as organism-based. The following applies: in vivo.
Series [8] relates to HUVEC. The experiment in a line: Antiangiogenic activity in HUVEC assessed as inhibition of capillary-like tube formation after 4 hrs by matrigel-based assay. The series is classed as functional, cell-based. The following applies: Homo sapiens.
The test system of the next series is A549. The experiment in a line: cells. Conditions: Homo sapiens, A549, 48 h.
Series [9] deals with Thoracic aorta. Put plainly: Antiangiogenic activity in Sprague-Dawley rat thoracic aorta ring assessed as reduction in micro-vessel growth supplemented with fresh medium containing compound every 3 for 9 days measured on day 9 by matrigel-based inverted microscopic analysis. The series is classed as functional, tissue-based.
In a further series the test system is U-937. The experiment in a line: cells. Conditions: Homo sapiens, U-937, 48 h.
The subject of a further series is MDA-MB-231. Put plainly: Antiproliferative activity against human MDA-MB-231 cells after 48 hrs by MTT assay. Conditions: MDA-MB-231, 48 h. (In general: Tetrazolium assays rely on reduction of a dye to a coloured formazan, in cell work by metabolically active cells.)
Another series relates to HCT-116. Put plainly: cells. Conditions: Homo sapiens, HCT-116, 48 h.
The nature of a further series: cells. The following applies: Homo sapiens, ES-2, 48 h.
The subject of series [10] is Mus musculus. Put plainly: Hepatotoxicity in Kunming mouse implanted with mouse H22 cells at 60 mg/kg, ip administered once daily for 12 days. It is filed as toxicity, organism-based. The following applies: in vivo, 288 h.
Another series deals with K562. Put plainly: cells. Conditions: Homo sapiens, K562, 48 h.
The test system of the next series is PC-3. The experiment in a line: cells. Conditions: Homo sapiens, PC-3, 48 h.
In a further series the test system is PLC. The experiment in a line: cells. Conditions: Homo sapiens, 48 h.

A word on the IC50: it is the point on the concentration scale where inhibition reaches its midpoint.

Activity calls are given as the source filed them. No cut-off for these calls is given here.

T1 sequence (P15144 whole entry): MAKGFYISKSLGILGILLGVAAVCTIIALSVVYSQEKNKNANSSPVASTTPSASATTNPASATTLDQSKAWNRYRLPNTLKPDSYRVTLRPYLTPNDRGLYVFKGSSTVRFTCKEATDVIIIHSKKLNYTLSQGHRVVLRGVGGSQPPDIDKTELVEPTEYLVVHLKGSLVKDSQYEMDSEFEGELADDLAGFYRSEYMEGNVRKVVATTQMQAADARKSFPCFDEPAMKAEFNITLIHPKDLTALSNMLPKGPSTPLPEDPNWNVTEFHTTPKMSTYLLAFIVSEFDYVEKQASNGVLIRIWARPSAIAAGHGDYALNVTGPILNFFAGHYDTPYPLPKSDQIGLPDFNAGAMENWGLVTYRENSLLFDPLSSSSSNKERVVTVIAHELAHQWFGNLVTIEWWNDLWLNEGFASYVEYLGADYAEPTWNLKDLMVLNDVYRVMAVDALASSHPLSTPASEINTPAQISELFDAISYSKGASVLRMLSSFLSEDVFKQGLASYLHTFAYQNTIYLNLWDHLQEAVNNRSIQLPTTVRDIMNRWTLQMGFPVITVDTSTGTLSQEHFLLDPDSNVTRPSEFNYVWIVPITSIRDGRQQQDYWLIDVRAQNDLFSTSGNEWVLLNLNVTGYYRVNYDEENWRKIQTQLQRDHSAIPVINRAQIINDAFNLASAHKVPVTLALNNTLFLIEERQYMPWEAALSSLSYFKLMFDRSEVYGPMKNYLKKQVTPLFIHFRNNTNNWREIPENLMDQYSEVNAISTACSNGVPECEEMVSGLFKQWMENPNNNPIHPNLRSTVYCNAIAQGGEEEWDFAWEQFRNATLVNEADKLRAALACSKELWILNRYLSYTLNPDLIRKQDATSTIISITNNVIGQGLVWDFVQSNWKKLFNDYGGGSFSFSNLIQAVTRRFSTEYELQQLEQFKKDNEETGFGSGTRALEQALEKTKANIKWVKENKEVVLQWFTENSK
Description for PLC: Antiproliferative activity against human PLC cells after 48 hrs by MTT assay
Description for U-937: Antiproliferative activity against human U937 cells after 48 hrs by MTT assay

Turning to `CCOc1ccccc1Cn1cc(CNC(=O)N[C@@H](CC(C)C)C(=O)NO)nn1`, the 50% inhibitory concentration (IC50) at Aminopeptidase N [1] stood at 5 µM; at Aminopeptidase N [2], 2.1 µM; at Aminopeptidase N [3] it was 0.44 µM.
`CC(C)C[C@H](NC(=O)NCc1cn(Cc2ccccc2Br)nn1)C(=O)NO`: the IC50 at Aminopeptidase N [3] amounted to 0.88 µM.
Consider `CC(C)C[C@H](NC(=O)[C@@H](O)[C@H](N)Cc1ccccc1)C(=O)O` [UBENIMEX], for which the inhibition entry in the series with HUVEC [4] is “Active”. Further, the Activity in the series with H22 is given as 64%. Further, the result with Thoracic aorta [5] was Active.
Regarding `CC(C)C[C@H](NC(=O)NCc1cn(CCc2ccccc2)nn1)C(=O)NO`, the IC50 at Aminopeptidase N [3] turned out to be 3.6 µM.
Consider `Cc1ccc(Cn2cc(CNC(=O)N[C@@H](CC(C)C)C(=O)NO)nn2)cc1`, for which the IC50 on Aminopeptidase N [3] is 3.6 µM.
Same read-out and setting: for `COc1cccc(OC)c1Cn1cc(CNC(=O)N[C@@H](CC(C)C)C(=O)NO)nn1` the value was 0.47 µM.
As to `COc1ccccc1C(C)n1cc(CNC(=O)N[C@@H](CC(C)C)C(=O)NO)nn1` (stereo partly drawn), the half-maximal inhibitory concentration (IC50) at Aminopeptidase N [1] is 12.3 µM; on Aminopeptidase N [2], 4.8 µM; on Aminopeptidase N [3], 0.55 µM.
As to `COc1ccc(Cn2cc(CNC(=O)N[C@@H](CC(C)C)C(=O)NO)nn2)cc1OC`, the concentration for half-maximal inhibition (IC50) at Aminopeptidase N [3] was determined as 2.6 µM.
Same read-out and setting: for `CC(C)C[C@H](NC(=O)NCc1cn(Cc2ccc([N+](=O)[O-])cc2)nn1)C(=O)NO` the value was 1 µM; for `CC(C)C[C@H](NC(=O)NCc1cn(Cc2cccc(Br)c2)nn1)C(=O)NO`, 3.5 µM.
Regarding `Cc1ccccc1Cn1cc(CNC(=O)N[C@@H](CC(C)C)C(=O)NO)nn1`, the IC50 on Aminopeptidase N [1] amounted to 20.6 µM; at Aminopeptidase N [2] it was 6.9 µM; on Aminopeptidase N [3], 0.76 µM.
Regarding `CC(C)C[C@H](NC(=O)NCc1cn(Cc2ccccc2OCc2ccccc2)nn1)C(=O)NO`, the Activity entry with Mus musculus [6] is “Non-Toxic”; in the series with Mus musculus [7] it was “Non-Toxic”; in the series on H22, 71%; in the series with Thoracic aorta [9], “Dose-dependent effect”; in the series with Mus musculus [10], “Non-Toxic”. Further, the IC50 at Aminopeptidase N [1] is 1.3 µM; in the series with A549, 90 µM; in the series on U-937, 68.4 µM; in the series on MDA-MB-231, 72.5 µM; at Aminopeptidase N [2] it was 0.74 µM; with HCT-116, 81.2 µM. Moreover, the IC50 is 105 µM in “cells”; 0.089 µM on Aminopeptidase N [3]; 85 µM with K562; 119 µM with PC-3; 92.8 µM with PLC. In addition, the inhibition entry in the series on HUVEC [8] is “Dose-dependent effect”.
Turning to `CC(C)C[C@H](NC(=O)NCc1cn(Cc2cccc(C#N)c2)nn1)C(=O)NO`, the IC50 on Aminopeptidase N [3] amounted to 7.8 µM.
On the same count and under the same terms, for `COc1cccc(Cn2cc(CNC(=O)N[C@@H](CC(C)C)C(=O)NO)nn2)c1` the value was 0.91 µM; for `CC(C)C[C@H](NC(=O)NCc1cn(C(c2ccccc2)c2ccccc2)nn1)C(=O)NO`, 2.3 µM; for `O=C(NCc1cn(Cc2ccc(Cl)cc2)nn1)N[C@H](C(=O)NO)c1ccccc1`, 11.3 µM.
Still for that read-out and setting: for `CC(C)C[C@H](NC(=O)NCc1cn(Cc2ccccc2[N+](=O)[O-])nn1)C(=O)NO` the value was 3.4 µM; for `CC(C)C[C@H](NC(=O)NCc1cn(Cc2cccc(Cl)c2)nn1)C(=O)NO`, 3.1 µM.
Still for that read-out and setting: for `CCOc1cccc(Cn2cc(CNC(=O)N[C@@H](CC(C)C)C(=O)NO)nn2)c1` the value was 0.82 µM.
Regarding `CC(C)C[C@H](NC(=O)NCc1cn(Cc2cccc(N)c2)nn1)C(=O)NO`, the 50% inhibitory concentration (IC50) at Aminopeptidase N [3] is 3.7 µM.
Consider `CC(C)C[C@H](NC(=O)NCc1cn(C/C=C/c2ccccc2)nn1)C(=O)NO`, for which the IC50 at Aminopeptidase N [3] worked out at 2.2 µM.
With `CC(C)C[C@H](NC(=O)NCc1cn(Cc2cccnc2)nn1)C(=O)NO`, the IC50 at Aminopeptidase N [3] was determined as 2.2 µM.
As to `CC(C)C[C@H](NC(=O)NCc1cn(Cc2ccc(Cl)c(Cl)c2)nn1)C(=O)NO`, the IC50 on Aminopeptidase N [3] was 5.5 µM.
Regarding `CC(C)C[C@H](NC(=O)NCc1cn(Cc2ccc3ccccc3c2)nn1)C(=O)NO`, the 50% inhibitory concentration (IC50) at Aminopeptidase N [3] was 3.9 µM.
Same read-out and setting: for `CC(C)C[C@H](NC(=O)NCc1cn(Cc2ccc(C#N)cc2)nn1)C(=O)NO` the value was 1.4 µM.
Consider `CC[C@@H](C)[C@H](NC(=O)NCc1cn(Cc2ccccc2)nn1)C(=O)NO`, for which the IC50 at Aminopeptidase N [3] was 13.6 µM.
The same measure, in the same setting: for `COc1cc(Cn2cc(CNC(=O)N[C@@H](CC(C)C)C(=O)NO)nn2)cc(OC)c1OC` the value was 1.4 µM; for `CC(C)C[C@H](NC(=O)NCc1cn(Cc2ccccc2)nn1)C(=O)NO`, 2.1 µM.
Still for that read-out and setting: for `Cc1cccc(Cn2cc(CNC(=O)N[C@@H](CC(C)C)C(=O)NO)nn2)c1` the value was 2.2 µM; for `CC(C)C[C@H](NC(=O)NCc1cn(Cc2ccc(Cl)cc2)nn1)C(=O)NO`, 6.9 µM; for `CC(C)C[C@H](NC(=O)NCc1cn(Cc2c(Cl)cccc2Cl)nn1)C(=O)NO`, 0.58 µM.
Still for that read-out and setting: for `CC(C)C[C@H](NC(=O)NCc1cn(C(C)c2ccccc2)nn1)C(=O)NO` (stereo partly drawn) the value was 1.9 µM; for `COc1ccc(Cn2cc(CNC(=O)N[C@@H](CC(C)C)C(=O)NO)nn2)cc1`, 1.9 µM; for `CC(C)C[C@H](NC(=O)NCc1cn(Cc2ccccc2Cl)nn1)C(=O)NO`, 0.67 µM.
Turning to `CC(C)C[C@H](NC(=O)NCc1cn(Cc2ccc(Br)cc2)nn1)C(=O)NO`, the IC50 at Aminopeptidase N [3] worked out at 7.8 µM.
Still for that read-out and setting: for `CC(C)C[C@H](NC(=O)NCc1cn(Cc2ccccc2N)nn1)C(=O)NO` the value was 0.68 µM; for `CCOc1ccc(Cn2cc(CNC(=O)N[C@@H](CC(C)C)C(=O)NO)nn2)cc1`, 1.5 µM.
For the compound `COc1ccccc1Cn1cc(CNC(=O)N[C@@H](CC(C)C)C(=O)NO)nn1`, the concentration for half-maximal inhibition (IC50) on Aminopeptidase N [1] is 15.3 µM; at Aminopeptidase N [2], 6.5 µM; on Aminopeptidase N [3], 0.65 µM.
Consider `CC(C)C[C@H](NC(=O)NCc1cn(Cc2cccc([N+](=O)[O-])c2)nn1)C(=O)NO`, for which, on Aminopeptidase N [3], the concentration for half-maximal inhibition (IC50) turned out to be 1.7 µM.
In the case of `CC(C)C[C@H](NC(=O)NCc1cn(Cc2cccc(OCc3ccccc3)c2)nn1)C(=O)NO`, the half-inhibitory concentration (IC50) is 4.9 µM at Aminopeptidase N [1]; 128 µM with A549; 70.3 µM in the series with U-937; 72.6 µM in the series on MDA-MB-231; 0.87 µM on Aminopeptidase N [2]; 130 µM with HCT-116. Moreover, the IC50 in the series “cells” was found to be 108 µM; at Aminopeptidase N [3] it was 0.24 µM; in the series on K562 it was 99.8 µM; with PC-3, 123 µM; in the series on PLC, 112 µM.
In the case of `Cc1cccc(C)c1Cn1cc(CNC(=O)N[C@@H](CC(C)C)C(=O)NO)nn1`, on Aminopeptidase N [3], the IC50 was determined as 0.39 µM.
On to `CC(C)C[C@H](NC(=O)NCc1cn(Cc2cccc3ccccc23)nn1)C(=O)NO`, for which the IC50 on Aminopeptidase N [3] turned out to be 1.4 µM.

The record behind these values is ChEMBL document CHEMBL4118239, “Novel leucine ureido derivatives as aminopeptidase N inhibitors using click chemistry” (Bioorg Med Chem, 2018).
